Laboratory results taken from PubChem BioAssay (NCI).
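Where inhibition never reached the appropriate level, the endpoint shown equals the highest concentration tested. Otherwise, values were interpolated linearly from a five-concentration, 48-hour dose response in 96-well plates. TGI marks complete inhibition of growth.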

Assays:
Test in all cases: NCI anticancer screen, dose series, 48 h
SR leukemia = system: SR leukemia
EKVX NSCLC = system: EKVX NSCLC
SN12C renal = system: SN12C renal
OVCAR-8 ovarian = system: OVCAR-8 ovarian
ACHN renal = system: ACHN renal
HOP-62 NSCLC = system: HOP-62 NSCLC
HCC-2998 colon = system: HCC-2998 colon
M14 melanoma = system: M14 melanoma
SK-OV-3 ovarian = system: SK-OV-3 ovarian
LXFL 529 NSCLC = system: LXFL 529 NSCLC
DLD-1 colon = system: DLD-1 colon
SNB-75 CNS = system: SNB-75 CNS
SF-539 CNS = system: SF-539 CNS
UACC-62 melanoma = system: UACC-62 melanoma
SK-MEL-28 melanoma = system: SK-MEL-28 melanoma
NCI-H460 lung = system: NCI-H460 lung
SNB-78 CNS = system: SNB-78 CNS
UO-31 renal = system: UO-31 renal
LOX IMVI melanoma = system: LOX IMVI melanoma
M19-MEL melanoma = system: M19-MEL melanoma
SNB-19 CNS = system: SNB-19 CNS
CCRF-CEM leukemia = system: CCRF-CEM leukemia
U251 CNS = system: U251 CNS
RXF-631 renal = system: RXF-631 renal
DMS 114 small cell lung = system: DMS 114 small cell lung
786-0 renal = system: 786-0 renal
K-562 leukemia = system: K-562 leukemia
UACC-257 melanoma = system: UACC-257 melanoma
MOLT-4 leukemia = system: MOLT-4 leukemia
SF-268 CNS = system: SF-268 CNS
HT29 colon = system: HT29 colon
KM20L2 colon = system: KM20L2 colon
TK-10 renal = system: TK-10 renal
OVCAR-3 ovarian = system: OVCAR-3 ovarian
XF 498 CNS = system: XF 498 CNS
OVCAR-5 ovarian = system: OVCAR-5 ovarian
RXF 393 renal = system: RXF 393 renal
MALME-3M melanoma = system: MALME-3M melanoma
HCT-15 colon = system: HCT-15 colon
NCI-H23 lung = system: NCI-H23 lung
NCI-H522 lung = system: NCI-H522 lung
SF-295 CNS = system: SF-295 CNS
RPMI-8226 leukemia = system: RPMI-8226 leukemia
HCT-116 colon = system: HCT-116 colon
A498 renal = system: A498 renal
KM12 colon = system: KM12 colon
HL-60(TB) leukemia = system: HL-60(TB) leukemia
OVCAR-4 ovarian = system: OVCAR-4 ovarian
SW-620 colon = system: SW-620 colon
COLO 205 colon = system: COLO 205 colon
IGROV1 ovarian = system: IGROV1 ovarian
CAKI-1 renal = system: CAKI-1 renal
HOP-92 NSCLC = system: HOP-92 NSCLC
DMS 273 small cell lung = system: DMS 273 small cell lung
A549 NSCLC = system: A549 NSCLC
SK-MEL-5 melanoma = system: SK-MEL-5 melanoma
NCI-H226 lung = system: NCI-H226 lung

Cc1cc(C)nc(NS(=O)(=O)c2ccc(NC(=O)c3cccc4c(Nc5ccc(S(=O)(=O)N=C(N)N)cc5)c5ccc(Cl)cc5nc34)cc2)n1
TGI (SR leukemia): 80.5 µM
TGI (EKVX NSCLC): > 100 µM
TGI (SN12C renal): > 100 µM
TGI (OVCAR-8 ovarian): > 100 µM
TGI (ACHN renal): > 100 µM
TGI (HOP-62 NSCLC): > 100 µM
TGI (HCC-2998 colon): 43.5 µM
TGI (M14 melanoma): > 100 µM
TGI (SK-OV-3 ovarian): > 100 µM
TGI (LXFL 529 NSCLC): > 100 µM
TGI (DLD-1 colon): 43.2 µM
TGI (SNB-75 CNS): > 100 µM
TGI (SF-539 CNS): 73.7 µM
TGI (UACC-62 melanoma): > 100 µM
TGI (SK-MEL-28 melanoma): > 100 µM
TGI (NCI-H460 lung): > 100 µM
TGI (SNB-78 CNS): > 100 µM
TGI (UO-31 renal): > 100 µM
TGI (LOX IMVI melanoma): 43.3 µM
TGI (M19-MEL melanoma): > 100 µM
TGI (SNB-19 CNS): 53.3 µM
TGI (CCRF-CEM leukemia): > 100 µM
TGI (U251 CNS): 31.4 µM
TGI (RXF-631 renal): > 100 µM
TGI (DMS 114 small cell lung): > 100 µM
TGI (786-0 renal): 32.2 µM
TGI (K-562 leukemia): > 100 µM
TGI (UACC-257 melanoma): 59.9 µM
TGI (MOLT-4 leukemia): 60.8 µM
TGI (SF-268 CNS): > 100 µM
TGI (HT29 colon): > 100 µM
TGI (KM20L2 colon): > 100 µM
TGI (TK-10 renal): > 100 µM
TGI (OVCAR-3 ovarian): 52.2 µM
TGI (XF 498 CNS): > 100 µM
TGI (OVCAR-5 ovarian): > 100 µM
TGI (RXF 393 renal): 36.5 µM
TGI (MALME-3M melanoma): > 100 µM
TGI (HCT-15 colon): > 100 µM
TGI (NCI-H23 lung): > 100 µM
TGI (NCI-H522 lung): 39.8 µM
TGI (SF-295 CNS): 53 µM
TGI (RPMI-8226 leukemia): 63 µM
TGI (HCT-116 colon): 35.4 µM
TGI (A498 renal): > 100 µM
TGI (KM12 colon): > 100 µM

COC(=O)C(Cc1c[nH]c2ccccc12)NC(=O)C(Cc1c[nH]c2ccccc12)NC(=O)OCc1ccccc1 (stereo unspecified)
TGI (EKVX NSCLC): 33.5 µM
TGI (SN12C renal): 30.9 µM
TGI (OVCAR-8 ovarian): 31.7 µM
TGI (ACHN renal): 39.2 µM
TGI (HOP-62 NSCLC): 37.6 µM
TGI (HL-60(TB) leukemia): 48.7 µM
TGI (HCC-2998 colon): 31.6 µM
TGI (M14 melanoma): 38 µM
TGI (SK-OV-3 ovarian): 34.3 µM
TGI (LXFL 529 NSCLC): 31.2 µM
TGI (DLD-1 colon): 32.7 µM
TGI (SNB-75 CNS): 39.9 µM
TGI (SF-539 CNS): 30.4 µM
TGI (UACC-62 melanoma): 33.4 µM
TGI (OVCAR-4 ovarian): 30.1 µM
TGI (SK-MEL-28 melanoma): 31.8 µM
TGI (NCI-H460 lung): 32 µM
TGI (SW-620 colon): 31.3 µM
TGI (COLO 205 colon): 30.6 µM
TGI (SNB-78 CNS): 60.2 µM
TGI (UO-31 renal): 44 µM
TGI (LOX IMVI melanoma): 32.2 µM
TGI (M19-MEL melanoma): 32.4 µM
TGI (SNB-19 CNS): 31.6 µM
TGI (IGROV1 ovarian): 36.6 µM
TGI (CAKI-1 renal): 40 µM
TGI (CCRF-CEM leukemia): 61.3 µM
TGI (U251 CNS): 30.6 µM
TGI (RXF-631 renal): 51.1 µM
TGI (DMS 114 small cell lung): 33.5 µM
TGI (786-0 renal): 29.7 µM
TGI (K-562 leukemia): 56.6 µM
TGI (UACC-257 melanoma): > 100 µM
TGI (HOP-92 NSCLC): 48.6 µM
TGI (SF-268 CNS): 34.6 µM
TGI (HT29 colon): 34.7 µM
TGI (KM20L2 colon): 32.2 µM
TGI (TK-10 renal): 41.4 µM
TGI (OVCAR-3 ovarian): 29 µM
TGI (DMS 273 small cell lung): 29.8 µM
TGI (XF 498 CNS): 30.7 µM
TGI (OVCAR-5 ovarian): 31.5 µM
TGI (RXF 393 renal): 35.1 µM
TGI (A549 NSCLC): 33 µM
TGI (SK-MEL-5 melanoma): 82.2 µM
TGI (MALME-3M melanoma): > 100 µM
TGI (HCT-15 colon): 31.3 µM
TGI (NCI-H23 lung): 32.2 µM
TGI (NCI-H522 lung): 32.2 µM
TGI (SF-295 CNS): 31.9 µM
TGI (RPMI-8226 leukemia): 34.6 µM
TGI (NCI-H226 lung): 40.3 µM
TGI (HCT-116 colon): 32.4 µM
TGI (A498 renal): > 100 µM
TGI (KM12 colon): 33.5 µM
